Data on eight compounds can be found in patent publication US20030181447A1, “3-(Diarylmethylene)-8-azabicyclo[3.2.1]octane derivatives” (priority 2001, published 2003).

Molecules are shown by their SMILES. Counter-ions that a name gives are not always drawn.

The subject of series [1] is mouse acetylcholine bromide-induced abdominal constriction. The experiment in a line: Mouse acetylcholine bromide-induced abdominal constriction assay. The series is classed as in vivo. The settings on record: 150 μmole/Kg p.o., 30 min before 5.5 mg/kg acetylcholine bromide i.p. The protocol:
Mouse Acetylcholine Bromide-Induced Abdominal Constriction Assay
The mouse acetylcholine-induced abdominal constriction assay (as described by Collier et al. in Brit. J. Pharmacol. Chem. Ther., 1968, 32: 295-310 with minor modifications) was used to assess analgesic potency of the compounds of formula (I). The test drugs or appropriate vehicles were administered orally (p.o.) and 30 min later the animal received an intraperitoneal (i.p.) injection of 5.5 mg/kg acetylcholine bromide (Matheson, Coleman and Bell, East Rutherford, N.J.). The mice were then placed in groups of three into glass bell jars and observed for a ten min observation period for the occurrence of an abdominal constriction response (defined as a wave of constriction and elongation passing caudally along the abdominal wall, accompanied by a twisting of the trunk and followed by extension of the hind limbs). For compounds of the present invention, the percent inhibition of this response to a nociceptive stimulus (equated to % analgesia) was calculated as follows: [formula]

As for `CN(C(=O)c1cccc(C(=C2CC3CCC(C2)N3C)c2ccccc2)c1)c1cccc(F)c1.O=C(O)/C=C/C(=O)O` [Example 22, N-(3-Fluorophenyl)-N-methyl-3-[(8-methyl-8-azabicyclo[3.2.1]oct-3-ylidene)phenylmethyl]benzamide Fumarate [1:1]], the melting point – broadly, the temperature of the solid-liquid transition – is 122 to 125 °C. `CCN(CC)C(=O)c1ccc(C(=C2CC3CCC(C2)N3C)c2ccccc2)cc1.Cl` [Example 1, N,N-Diethyl-4-[(8-methyl-8-azabicyclo[3.2.1]oct-3-ylidene)phenylmethyl]benzamide Hydrochloride [1:1]] displayed a melting point of 145 to 147 °C. For the same compound, the “percent inhibition of abdominal constriction response (% analgesia)” value in series [1] was determined as 87%. For the compound `NC(=O)c1ccc(C(=C2CC3CCC(C2)N3CCc2ccccc2)c2ccccc2)cc1` (as salt: hydrochloride) [Example 29, 4-[(8-Phenethyl-8-azabicyclo[3.2.1]oct-3-ylidene)phenylmethyl]benzamide Hydrochloride [1:1].], the melting point was in the range of 210 to 212 °C. `CCN(CC)C(=O)c1ccc(C(=C2CC3CCC(C2)N3)c2ccccc2)cc1.Cl` [Example 2, N,N-Diethyl-4-[(8-azabicyclo[3.2.1]oct-3-ylidene)phenylmethyl]benzamide Hydrochloride [1:1]] showed a melting point of 128 to 132 °C. Same read-out and setting: the result for `CCN(CC)C(=O)c1ccc(C(=C2CC3CCC(C2)N3CCc2ccccc2)c2ccccc2)cc1` (single isomer, unassigned; (+)) (as salt: hydrochloride) [Example 24] reads 211 to 212 °C; that for `CCNC(=O)c1ccc(C(=C2CC3CCC(C2)N3CCc2ccccc2)c2ccccc2)cc1` (as salt: HCl) [Example 26, N-Ethyl-4-[(8-phenethyl-8-azabicyclo[3.2.1]oct-3-ylidene)phenylmethyl]benzamide], 296 to 298 °C (dec.). The compound `CCCN1C2CCC1CC(=C(c1ccccc1)c1ccc(C(=O)N(CC)CC)cc1)C2.Cl` [Example 18, N,N-Diethyl-4-[(8-propyl-8-azabicyclo[3.2.1]oct-3-ylidene)phenylmethyl]benzamide Hydrochloride [1:1]] showed a melting point of 184 °C.

For the compound `CCN(CC)C(=O)c1ccc(C(=C2CC3CCC(C2)N3CCc2ccccc2)c2ccccc2)cc1` (single isomer, unassigned; (-)) (as salt: hydrochloride) [Example 23], the melting point was in the range of 210 to 211 °C.
